The source of these data is publication PMC5218480 (PLoS ONE, 2017).

This assay concerns MV-4-11 cells. Kind of assay: Gene expression microarray analysis (Affymetrix PrimeView) and GSEA. The class given is cell-based, human. Further details: RFU PODN (11730768_x_at) / Fold change /veh PODN (11730768_x_at) / RFU LINC00158 (11744669_a_at) / Fold change /veh LINC00158 (11744669_a_at) / RFU DUSP10 (11751237_a_at) / Fold change /veh DUSP10 (11751237_a_at) / RFU ID3 (11757404_x_at) / Fold change /veh ID3 (11757404_x_at) / RFU PLEKHG5 (11737974_s_at) / Fold change /veh PLEKHG5 (11737974_s_at) / RFU LRRC4B (11730491_at) / Fold change /veh LRRC4B (11730491_at) / RFU GIMAP4 (11747438_a_at) / Fold change /veh GIMAP4 (11747438_a_at) / RFU KRT8 (11758183_x_at) / Fold change /veh KRT8 (11758183_x_at) / RFU CNN1 (11734310_a_at) / Fold change /veh CNN1 (11734310_a_at) / RFU VPS37D (11726825_at) / Fold change /veh VPS37D (11726825_at) / RFU C10orf10 (11716522_x_at) / Fold change /veh C10orf10 (11716522_x_at) / RFU KIR2DL2 /// KIR2DL4 /// KIR2DL5A /// KIR2DL5B /// KIR2DS1 /// KIR2DS2 /// KIR2DS3 /// KIR2DS4 /// KIR3DL3 /// KIR3DL3 /// KIR3DS1 (11738374_at) / Fold change /veh KIR2DL2 /// KIR2DL4 /// KIR2DL5A /// KIR2DL5B /// KIR2DS1 /// KIR2DS2 /// KIR2DS3 /// KIR2DS4 /// KIR3DL3 /// KIR3DL3 /// KIR3DS1 (11738374_at) / RFU C1QL1 (11718748_at) / Fold change /veh C1QL1 (11718748_at) / RFU TMPRSS4 (11747572_a_at) / Fold change /veh TMPRSS4 (11747572_a_at) / RFU HAMP (11756126_x_at) / Fold change /veh HAMP (11756126_x_at) / RFU RNFT2 (11725882_a_at) / Fold change /veh RNFT2 (11725882_a_at) / RFU NR4A2 (11747474_a_at) / Fold change /veh NR4A2 (11747474_a_at) / RFU ABCC12 (11746883_a_at) / Fold change /veh ABCC12 (11746883_a_at) / RFU TMEM136 (11760407_x_at) / Fold change /veh TMEM136 (11760407_x_at) / RFU CLDN22 /// WWC2 (11732394_at) / Fold change /veh CLDN22 /// WWC2 (11732394_at) / RFU HLA-DPB1 (11760878_x_at) / Fold change /veh HLA-DPB1 (11760878_x_at) / RFU SPINT1 (11716480_a_at) / Fold change /veh SPINT1 (11716480_a_at) / RFU GAP43 (11754022_s_at) / Fold change /veh GAP43 (11754022_s_at) / RFU A4GNT (11735810_at) / Fold change /veh A4GNT (11735810_at) / RFU PRB3 (11715151_x_at) / Fold change /veh PRB3 (11715151_x_at) / RFU TUBB4B (11761932_at) / Fold change /veh TUBB4B (11761932_at) / RFU CAPN14 (11732068_a_at) / Fold change /veh CAPN14 (11732068_a_at) / RFU TMCC2 (11721928_a_at) / Fold change /veh TMCC2 (11721928_a_at) / RFU IRGQ (11745062_a_at) / Fold change /veh IRGQ (11745062_a_at) / RFU FAM174B (11720279_a_at) / Fold change /veh FAM174B (11720279_a_at) / RFU TMPRSS4 (11748680_a_at) / Fold change /veh TMPRSS4 (11748680_a_at) / RFU FAM212B (11763350_a_at) / Fold change /veh FAM212B (11763350_a_at) / RFU PLEKHG5 (11743358_a_at) / Fold change /veh PLEKHG5 (11743358_a_at) / RFU ZSCAN30 (11745921_a_at) / Fold change /veh ZSCAN30 (11745921_a_at) / RFU CMKLR1 (11741424_a_at) / Fold change /veh CMKLR1 (11741424_a_at) / RFU LOC101060620 /// MAPK8IP1 (11723275_at) / Fold change /veh LOC101060620 /// MAPK8IP1 (11723275_at) / RFU SPTSSB (11747773_x_at) / Fold change /veh SPTSSB (11747773_x_at) / RFU PRSS12 (11739890_at) / Fold change /veh PRSS12 (11739890_at) / RFU BIN1 (11741810_x_at) / Fold change /veh BIN1 (11741810_x_at) / RFU WNT11 (11732464_a_at) / Fold change /veh WNT11 (11732464_a_at) / RFU C10orf10 (11716521_a_at) / Fold change /veh C10orf10 (11716521_a_at) / RFU C5orf56 (11738089_at) / Fold change /veh C5orf56 (11738089_at) / RFU CYB561 (11721691_x_at) / Fold change /veh CYB561 (11721691_x_at) / RFU ANKRD19P (11752326_a_at) / Fold change /veh ANKRD19P (11752326_a_at) / RFU OR2T12 /// OR2T33 /// OR2T8 (11738714_s_at) / Fold change /veh OR2T12 /// OR2T33 /// OR2T8 (11738714_s_at) / RFU VCAN (11748164_a_at) / Fold change /veh VCAN (11748164_a_at) / RFU JSRP1 (11732532_at) / Fold change /veh JSRP1 (11732532_at) / RFU KRTAP10-11 (11738290_x_at) / Fold change /veh KRTAP10-11 (11738290_x_at) / RFU MYO3A (11730013_a_at) / Fold change /veh MYO3A (11730013_a_at) / RFU EBF3 (11725865_a_at) / Fold change /veh EBF3 (11725865_a_at) / RFU CAMK2N1 (11719241_x_at) / Fold change /veh CAMK2N1 (11719241_x_at) / RFU C5orf56 (11738088_a_at) / Fold change /veh C5orf56 (11738088_a_at) / RFU OLFML3 (11715873_a_at) / Fold change /veh OLFML3 (11715873_a_at) / RFU LOC100653217 /// NTM (11731650_a_at) / Fold change /veh LOC100653217 /// NTM (11731650_a_at) / RFU MAPK11 (11762145_a_at) / Fold change /veh MAPK11 (11762145_a_at) / RFU FIZ1 (11724087_x_at) / Fold change /veh FIZ1 (11724087_x_at) / RFU OASL (11726364_x_at) / Fold change /veh OASL (11726364_x_at) / RFU SOX15 (11748057_x_at) / Fold change /veh SOX15 (11748057_x_at) / RFU CD79A (11719716_a_at) / Fold change /veh CD79A (11719716_a_at) / RFU HIST1H1D (11736915_at) / Fold change /veh HIST1H1D (11736915_at) / RFU CASKIN2 (11723855_a_at) / Fold change /veh CASKIN2 (11723855_a_at) / RFU LOC730098 (11760151_x_at) / Fold change /veh LOC730098 (11760151_x_at) / RFU OR4N2 (11742367_at) / Fold change /veh OR4N2 (11742367_at) / RFU PRRT2 (11749266_a_at) / Fold change /veh PRRT2 (11749266_a_at) / RFU SNX32 (11753110_a_at) / Fold change /veh SNX32 (11753110_a_at) / RFU CDHR5 (11726645_a_at) / Fold change /veh CDHR5 (11726645_a_at) / RFU RCAN1 (11760418_a_at) / Fold change /veh RCAN1 (11760418_a_at) / RFU FAM167A (11723789_a_at) / Fold change /veh FAM167A (11723789_a_at) / RFU FAM26E (11764081_at) / Fold change /veh FAM26E (11764081_at) / RFU ISYNA1 (11749810_s_at) / Fold change /veh ISYNA1 (11749810_s_at) / RFU ACY1 (11761880_at) / Fold change /veh ACY1 (11761880_at) / RFU 11764098_at / Fold change /veh 11764098_at / RFU SAMD14 (11745864_x_at) / Fold change /veh SAMD14 (11745864_x_at) / RFU NPB (11741838_a_at) / Fold change /veh NPB (11741838_a_at) / RFU TMPRSS6 (11731388_a_at) / Fold change /veh TMPRSS6 (11731388_a_at) / RFU KRTAP10-2 (11738614_at) / Fold change /veh KRTAP10-2 (11738614_at) / RFU ARHGAP8 /// PRR5-ARHGAP8 (11727945_x_at) / Fold change /veh ARHGAP8 /// PRR5-ARHGAP8 (11727945_x_at) / RFU KRTAP5-7 /// NADSYN1 (11734609_at) / Fold change /veh KRTAP5-7 /// NADSYN1 (11734609_at) / RFU RASL12 (11751679_a_at) / Fold change /veh RASL12 (11751679_a_at) / RFU CDKN2B (11736163_a_at) / Fold change /veh CDKN2B (11736163_a_at) / RFU PRF1 (11729649_at) / Fold change /veh PRF1 (11729649_at) / RFU, ZNF638 /// ZNF638-IT1 / Fold change vs veh, ZNF638 /// ZNF638-IT1 / RFU, PANK3 / Fold change vs veh, PANK3 / RFU, SH3YL1 / Fold change vs veh, SH3YL1 / RFU, ZEB2 / Fold change vs veh, ZEB2 / RFU, NRIP1 / Fold change vs veh, NRIP1 / RFU, PTTG1IP / Fold change vs veh, PTTG1IP / RFU, CAPN2 / Fold change vs veh, CAPN2 / RFU, MED14 / Fold change vs veh, MED14 / RFU, SNORA58 / Fold change vs veh, SNORA58 / RFU, C1orf63 / Fold change vs veh, C1orf63 / RFU, LRRFIP1 / Fold change vs veh, LRRFIP1 / RFU, NDUFAF7 / Fold change vs veh, NDUFAF7 / RFU, SLC12A2 / Fold change vs veh, SLC12A2 / RFU, IBTK / Fold change vs veh, IBTK / RFU, ESF1 / Fold change vs veh, ESF1 / Fold change vs veh, TMEM50B / RFU, TAOK1 / Fold change vs veh, TAOK1 / RFU, ACBD3 / Fold change vs veh, ACBD3 / RFU, TMA16 / Fold change vs veh, TMA16 / RFU, RWDD3 / Fold change vs veh, RWDD3 / RFU, BCAT1 / Fold change vs veh, BCAT1 / RFU, EDEM3 / Fold change vs veh, EDEM3 / RFU, TMEM33 / Fold change vs veh, TMEM33 / RFU, WDR75 / Fold change vs veh, WDR75 / RFU, AHCTF1 / Fold change vs veh, AHCTF1 / RFU, TFRC / Fold change vs veh, TFRC / RFU, ZDHHC17 / Fold change vs veh, ZDHHC17 / RFU, NOM1 / Fold change vs veh, NOM1 / RFU, ARL8B / Fold change vs veh, ARL8B / RFU, ZBTB11 / Fold change vs veh, ZBTB11 / RFU, TAMM41 / Fold change vs veh, TAMM41 / RFU, KIAA1704 /// LOC100996395 / Fold change vs veh, KIAA1704 /// LOC100996395 / RFU, ING1 / Fold change vs veh, ING1 / RFU, TRMT61B / Fold change vs veh, TRMT61B / RFU, FUBP3 / Fold change vs veh, FUBP3 / RFU, TP53 / Fold change vs veh, TP53 / RFU, TNKS2 / Fold change vs veh, TNKS2 / RFU, ZFP14 / Fold change vs veh, ZFP14 / RFU, ACTR2 / Fold change vs veh, ACTR2 / RFU, PPP3R1 / Fold change vs veh, PPP3R1 / RFU, PIK3R1 / Fold change vs veh, PIK3R1 / RFU, HNRNPA1 / Fold change vs veh, HNRNPA1 / RFU, RNF170 / Fold change vs veh, RNF170 / RFU, ZNF28 / Fold change vs veh, ZNF28 / RFU, RNGTT / Fold change vs veh, RNGTT / RFU, OGT / Fold change vs veh, OGT / RFU, BRD1 / Fold change vs veh, BRD1 / RFU, MARS / Fold change vs veh, MARS / RFU, ZNF655 / Fold change vs veh, ZNF655 / RFU, FAHD1 / Fold change vs veh, FAHD1 / RFU, BDP1 / Fold change vs veh, BDP1 / RFU, LRRCC1 / Fold change vs veh, LRRCC1 / RFU, ARID1A / Fold change vs veh, ARID1A / RFU, ZNF146 / Fold change vs veh, ZNF146 / RFU, ZNF330 / Fold change vs veh, ZNF330 / RFU, GPN3 / Fold change vs veh, GPN3 / RFU, C9orf123 / Fold change vs veh, C9orf123 / RFU, N4BP2L2 / Fold change vs veh, N4BP2L2 / RFU, ARFIP1 / Fold change vs veh, ARFIP1 / RFU, FAM179B / Fold change vs veh, FAM179B / RFU, BCL10 / Fold change vs veh, BCL10 / RFU, UHRF1BP1L / Fold change vs veh, UHRF1BP1L / RFU, BET1 / Fold change vs veh, BET1 / RFU, CNOT2 / Fold change vs veh, CNOT2 / RFU, ZNF268 / Fold change vs veh, ZNF268 / Fold change vs veh, ZNF507 / RFU, DGCR2 / Fold change vs veh, DGCR2 / RFU, WDSUB1 / Fold change vs veh, WDSUB1 / Fold change vs veh, HSP90B1 /// MIR3652 / RFU, ADSS / Fold change vs veh, ADSS / RFU, GK / Fold change vs veh, GK / RFU, ZNF148 / Fold change vs veh, ZNF148 / RFU, TAF9 / Fold change vs veh, TAF9 / RFU, SLC1A5 / Fold change vs veh, SLC1A5 / RFU, SLMO2 / Fold change vs veh, SLMO2 / RFU, ABCC4 / Fold change vs veh, ABCC4 / RFU, LOC101060439 /// RAP1B / Fold change vs veh, LOC101060439 /// RAP1B / RFU, RFX7 / Fold change vs veh, RFX7 / RFU, GTPBP10 / Fold change vs veh, GTPBP10 / RFU, CNEP1R1 / Fold change vs veh, CNEP1R1 / RFU, BIVM-ERCC5 /// ERCC5 / Fold change vs veh, BIVM-ERCC5 /// ERCC5 / RFU, ILF3 / Fold change vs veh, ILF3 / RFU 11762660_at / Fold change /veh 11762660_at / RFU VCAN (11757783_s_at) / Fold change /veh VCAN (11757783_s_at) / RFU DDX43 (11728927_at) / Fold change /veh DDX43 (11728927_at) / RFU KRT8 (11758188_x_at) / Fold change /veh KRT8 (11758188_x_at) / RFU NKD1 (11759106_at) / Fold change /veh NKD1 (11759106_at) / RFU SRD5A1 (11742802_a_at) / Fold change /veh SRD5A1 (11742802_a_at) / RFU TPSAB1 /// TPSB2 (11721975_s_at) / Fold change /veh TPSAB1 /// TPSB2 (11721975_s_at) / RFU GSTM3 (11746129_a_at) / Fold change /veh GSTM3 (11746129_a_at) / RFU IL23R (11737362_x_at) / Fold change /veh IL23R (11737362_x_at) / RFU TMEM51 (11727254_a_at) / Fold change /veh TMEM51 (11727254_a_at) / RFU PIWIL2 (11732686_x_at) / Fold change /veh PIWIL2 (11732686_x_at) / RFU ORM1 (11744905_x_at) / Fold change /veh ORM1 (11744905_x_at) / RFU CCDC152 (11743942_at) / Fold change /veh CCDC152 (11743942_at) / RFU ECM1 (11717891_a_at) / Fold change /veh ECM1 (11717891_a_at) / RFU IL23R (11748794_a_at) / Fold change /veh IL23R (11748794_a_at) / RFU TNFAIP8L3 (11732012_x_at) / Fold change /veh TNFAIP8L3 (11732012_x_at) / RFU MBOAT4 (11741988_at) / Fold change /veh MBOAT4 (11741988_at) / RFU 11764193_at / Fold change /veh 11764193_at / RFU TMEM53 (11763286_at) / Fold change /veh TMEM53 (11763286_at) / RFU MAGEB2 (11727129_at) / Fold change /veh MAGEB2 (11727129_at) / RFU TMEM200A (11744735_a_at) / Fold change /veh TMEM200A (11744735_a_at) / RFU CCDC152 (11751479_a_at) / Fold change /veh CCDC152 (11751479_a_at) / RFU FAM211A (11726209_a_at) / Fold change /veh FAM211A (11726209_a_at) / RFU RGS16 (11746705_a_at) / Fold change /veh RGS16 (11746705_a_at) / RFU VCAN (11755009_s_at) / Fold change /veh VCAN (11755009_s_at) / RFU RHOB (11743442_s_at) / Fold change /veh RHOB (11743442_s_at) / RFU RGS16 (11720943_a_at) / Fold change /veh RGS16 (11720943_a_at) / RFU RGS16 (11720944_at) / Fold change /veh RGS16 (11720944_at) / RFU, VPS4B / Fold change vs veh, VPS4B / RFU, CREB1 / Fold change vs veh, CREB1 / RFU, DNAJC13 / Fold change vs veh, DNAJC13 / RFU, GNAQ / Fold change vs veh, GNAQ / RFU, CDK5R1 / Fold change vs veh, CDK5R1 / RFU, ZRANB3 / Fold change vs veh, ZRANB3 / RFU, CUL4A / Fold change vs veh, CUL4A / RFU, CCNY / Fold change vs veh, CCNY / RFU, UFL1 / Fold change vs veh, UFL1 / RFU, COG3 / Fold change vs veh, COG3 / RFU, DIAPH2 / Fold change vs veh, DIAPH2 / RFU, SKA2 / Fold change vs veh, SKA2 / RFU, AFF3 / Fold change vs veh, AFF3 / RFU, LMF1 / Fold change vs veh, LMF1 / RFU, IPO11 / Fold change vs veh, IPO11 / RFU, DFFB / Fold change vs veh, DFFB / RFU, FOXP1 / Fold change vs veh, FOXP1 / RFU, CARD8 / Fold change vs veh, CARD8 / RFU, STRN3 / Fold change vs veh, STRN3 / RFU, ADK / Fold change vs veh, ADK / RFU, RASSF2 / Fold change vs veh, RASSF2 / RFU, WIPF1 / Fold change vs veh, WIPF1 / RFU, LARP1B / Fold change vs veh, LARP1B / RFU, RASA1 / Fold change vs veh, RASA1 / RFU, RB1 / Fold change vs veh, RB1 / RFU, PPFIA1 / Fold change vs veh, PPFIA1 / RFU, MAT2A / Fold change vs veh, MAT2A / RFU, CCT5 / Fold change vs veh, CCT5 / RFU, WDR92 / Fold change vs veh, WDR92 / RFU, CUX1 / Fold change vs veh, CUX1 / RFU, TTC7A / Fold change vs veh, TTC7A / RFU, TMEM135 / Fold change vs veh, TMEM135 / RFU, DEPTOR / Fold change vs veh, DEPTOR / RFU, CPM / Fold change vs veh, CPM / RFU, DNAJB6 / Fold change vs veh, DNAJB6 / RFU, CACNA2D3 / Fold change vs veh, CACNA2D3 / RFU, DTX4 / Fold change vs veh, DTX4 / RFU, TFCP2 / Fold change vs veh, TFCP2 / RFU, GMCL1 /// GMCL1P1 / Fold change vs veh, GMCL1 /// GMCL1P1 / RFU, AEBP2 / Fold change vs veh, AEBP2 / RFU, SNHG1 /// SNORD22 /// SNORD25 /// SNORD26 /// SNORD27 /// SNORD28 /// SNORD29 /// SNORD31 / Fold change vs veh, SNHG1 /// SNORD22 /// SNORD25 /// SNORD26 /// SNORD27 /// SNORD28 /// SNORD29 /// SNORD31 / Fold change (Aza/veh), C12orf56 (ProbeSet 11735607_a_at) / Fold change (ACY-1035/veh), C12orf56 (ProbeSet 11735607_a_at) / Fold change (Aza/veh), FGFR1OP (ProbeSet 11751329_s_at) / Fold change (ACY-1035/veh), FGFR1OP (ProbeSet 11751329_s_at) / Fold change (Aza/veh), VPS36 (ProbeSet 11739960_a_at) / Fold change (ACY-1035/veh), VPS36 (ProbeSet 11739960_a_at) / RFU SYPL1 (11715823_x_at) / Fold change /veh SYPL1 (11715823_x_at) / RFU IGFBP7 (11715501_s_at) / Fold change /veh IGFBP7 (11715501_s_at) / RFU REEP3 (11722064_at) / Fold change /veh REEP3 (11722064_at) / RFU IGLL1 (11728026_x_at) / Fold change /veh IGLL1 (11728026_x_at): dose or concentration left out as unconfirmed. The conditions noted are these: ProbeSet 11759094_a_at; LIST D.

On to `Nc1ccc(-c2cccs2)cc1NC(=O)c1ccc2c(c1)cc(C1CC1)n2CCN1CCOCC1` [ACY-1035], for which the “Fold change vs veh, GNAQ” value was 0.89.
